The source made the active and inactive calls. No cut-off for these calls is given here.
Key:
K562/Adr [1] = assay: Induction of intracellular ROS accumulation in human K562/ADR cells assessed as fluorescence intensity at 0.1 uM treated 2 hrs post ROS scavenger NAC addition measured after 24 hrs by DCFH-DA probe based flow cytometry relative to vehicle-treated control; type: functional
K562/Adr [2] = assay: Induction of ERK1/2 phosphorylation in human K562/ADR cells assessed as ratio of phosphorylated ERK1/2 to beta-actin level at 0.1 uM pretreated with MAPK inhibitor SB203580 for 1 hr followed by compound addition after 48 hrs by Western blotting method (reference value: 0.22); type: cell-based
[3] = Downregulation of CDK2 expression in human K562/ADR cells assessed as ratio of CDK2 to beta-actin level at 0.1 uM pretreated with MAPK inhibitor SB203580 for 1 hr followed by compound addition measured after 48 hrs by Western blot analysis (reference value: 0.65); type: functional, cell-based
[4] = target: c-Jun N-terminal kinase, JNK (Homo sapiens) (UniProt P45983+P53779+P45984); assay: Induction of JNK phosphorylation in human K562/ADR cells assessed as ratio of phosphorylated JNK to beta-actin level at 0.1 uM measured after 48 hrs by Western blotting (reference value: 0.46); type: cell-based
[5] = Downregulation of CyclinB1 expression in human K562/ADR cells assessed as ratio of CyclinB1 to beta-actin level at 0.1 uM pretreated with MAPK inhibitor SB203580 for 1 hr followed by compound addition measured after 48 hrs by Western blot analysis (reference value: 0.77); type: functional, cell-based
[6] = Downregulation of CyclinA expression in human K562/ADR cells assessed as ratio of CyclinA to beta-actin level at 0.1 uM measured after 48 hrs by Western blot analysis (reference value: 0.64); type: functional, cell-based
K562/Adr [7] = assay: Induction of apoptosis in human K562/ADR cells assessed as ratio of cleaved caspase-3 to beta-actin level at 0.1 uM measured after 48 hrs by Western blot analysis (reference value: 0.06); type: functional
[8] = Downregulation of CDK1 expression in human K562/ADR cells assessed as ratio of CDK1 to beta-actin level at 0.1 uM pretreated with MAPK inhibitor SP600125for 1 hr followed by compound addition measured after 48 hrs by Western blot analysis (reference value: 0.53); type: functional, cell-based
[9] = Potency index, ratio of etoposide IC50 to compound IC50 for antiproliferative activity against human K562/ADR cells; type: functional
K562/Adr [10] = assay: Induction of apoptosis in human K562/ADR cells assessed as ratio of cleaved caspase-9 to beta-actin level at 0.1 uM pretreated with ROS scavenger NAC for 2 hrs followed by compound addition measured after 48 hrs by Western blot analysis (reference value: 0.05); type: functional
K562/Adr [11] = assay: Induction of apoptosis in human K562/ADR cells assessed as ratio of cleaved caspase-8 to beta-actin level at 0.1 uM pretreated with ROS scavenger NAC for 2 hrs followed by compound addition measured after 48 hrs by Western blot analysis (reference value: 0.07); type: functional
K562/Adr [12] = assay: Induction of apoptosis in human K562/ADR cells assessed as ratio of cleaved caspase-9 to beta-actin level at 0.1 uM pretreated with MAPK inhibitor SP600125 for 1 hr followed by compound addition measured after 48 hrs by Western blot analysis (reference value: 0.05); type: functional
K562/Adr [13] = assay: Induction of apoptosis in human K562/ADR cells assessed as membrane blebbing at 0.1 uM measured after 24 hrs by Hoechst33342 staining-based inverted fluorescent microscopic analysis; type: functional, cell-based
K562/Adr [14] = assay: Induction of apoptosis in human K562/ADR cells assessed as early apoptotic cells at 0.1 uM after 48 hrs by Annexin V-APC/7-AAD staining based flow cytometry (reference value: 2.74%); type: functional
K562/Adr [15] = assay: Induction of apoptosis in human K562/ADR cells assessed as late apoptotic cells at 0.1 uM pretreated with MAPK inhibitor SB203580 for 1 hr followed by compound addition after 48 hrs by Annexin V-APC/7-AAD staining based flow cytometry (reference value: 1.69%); type: functional; parameters: scale not given: the % may be the effect or the level left

COc1cc([C@@H]2c3cc4c(cc3[C@H](OC(=O)c3ccco3)[C@H]3COC(=O)[C@H]23)OCO4)cc(OC)c1OC
fold change (FC) (K562/Adr [1]): 0.49
Ratio (K562/Adr [2]): 0.15
Ratio [3]: 0.24
Ratio [4]: 0.83
Ratio [5]: 0.26
Ratio [6]: 0.15
Ratio (K562/Adr [7]): 0.68
Ratio [8]: 0.19
Ratio IC50 [9]: 69.093
Ratio (K562/Adr [10]): 0.1
Ratio (K562/Adr [11]): 0.15
Ratio (K562/Adr [12]): 0.47
Activity (K562/Adr [13]): Active
Activity (K562/Adr [14]): 7.92%
Activity (K562/Adr [15]): 30.87%

— ChEMBL document CHEMBL3872207, “Aromatic heterocyclic esters of podophyllotoxin exert anti-MDR activity in human leukemia K562/ADR cells via ROS/MAPK signaling pathways” (Eur J Med Chem, 2016)
